The test system of one experiment is Ab AB5075. It counts as cell-based, Acinetobacter baumannii. As to conditions: for MIC in RPMI AB 5075: pH 7.4. In a few lines: (§1)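 MHA colonies → 0.85% saline, OD600 ~0.1; 2-fold serial dilutions ×8 or ×12; conjugates in RPMI B; 35° C, 16-20 h. Pa LES431 ± 50% heat-inactivated FBS.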
A further experiment has as its system Ab 8990 (COL^R). It counts as cell-based, Acinetobacter baumannii. The method in brief: as §1
The next experiment deals with Kp 43816. It counts as cell-based, Klebsiella pneumoniae. The method in brief:
as §1

A further experiment concerns Kp 10031. The class given is cell-based, Klebsiella pneumoniae. The method in brief: as §1
For another experiment, the system named is Ec 25922. It counts as cell-based, Escherichia coli. To be noted: for MIC in RPMI EC 25922: pH 7.4. The method in brief: as §1
For another experiment, the system named is Ec 2469. The class given is cell-based, Escherichia coli. The method in brief:
as §1

A further experiment deals with A. baumannii AB5075. The experiment can be described thus: Lethal A. baumannii lung infection (mouse pneumonia) model, survival. It counts as in vivo, Acinetobacter baumannii. To be noted: mouse pneumonia model vs. AB5075; 5 mg/kg, twice intravenously, t=+1 h and +4 h; n=5.
The test system of a further experiment is Sa RN. The class given is cell-based.
Another experiment has as its system Kp 6951 (COL^R). The class given is cell-based, Klebsiella pneumoniae. As to conditions: Kp 6951 (COL^R); media CA-MHB. In a few lines: as §1
In another experiment the test system is Ab 19606 (COLhet^R). The class given is cell-based, Acinetobacter baumannii. To be noted: media CA-MHB.
Experiment [1] has as its system Ab AB58705 (COL^R) IpxD, mut. (no LPS). The class given is cell-based, Acinetobacter baumannii. To be noted: media CA-MHB.

Values after ≈ are worked out from the molar mass of the structure shown. Like-named read-outs stand apart in the source and are kept apart here. *1 amine or outer side, *2 acyl side, *3 side chain or, on linkers, in order; H or OH if unused. Where a SMILES comes first, the peptide text is derived from it. Bridges are numbered along the chain shown (N, C = ends). Roman numbers before positions name the chains, in order. [ ]: non-standard residue; d: D form. The star is where a group is joined. X5 = C#CCOCCOCCOCCOCCN1C[C@@H](C(=O)[*:1])[C@H](C(=O)[*:2])C1; X2 = O=C([C@@H](N[*:1])[C@H](O)CCC(F)(F)F)[*:2]; Propargyl(OCH2CH2)4CO = C#CCOCCOCCOCCOCCC(=O)*; X3 = CCCCC[C@@H](O)[C@H](N[*:1])C(=O)[*:2]; azaDab = NCCN(N[*:1])C(=O)[*:2]; Aoc(2) = CCCCCC[C@H](N)C(=O)O; hLeu = CC(C)CC[C@H](N)C(=O)O; Nle = CCCC[C@H](N)C(=O)O; Dab = NCC[C@H](N)C(=O)O; azaGly = NNC(=O)O

As usually defined, the MIC is the least concentration at which growth counts as inhibited. As for `C#CCOCCOCCOCCOCCC(=O)N[C@@H](CCCCCC)C(=O)N[C@@H](CCN)C(=O)N[C@H](C(=O)N[C@@H](CCN)C(=O)N[C@H]1CCNC(=O)[C@H]([C@@H](C)O)NC(=O)[C@H](CCN)NC(=O)[C@H](CCN)NC(=O)[C@H](CC(C)C)NC(=O)[C@@H](Cc2ccccc2)NC(=O)[C@H](CCN)NC1=O)[C@H](O)CCC(F)(F)F` [Int-118] ({Propargyl(OCH2CH2)4CO}-[Aoc(2)][Dab][X2][Dab][Dab][Dab][dF]L[Dab][Dab]T; lactam 5-C), the minimal inhibitory concentration (MIC) was found to be 1 µg/mL (≈ 0.654 µM) in the experiment on Ab AB5075; 128 µg/mL (≈ 83.7 µM) with Ab 8990 (COL^R); 2 µg/mL (≈ 1.31 µM) in the experiment with Kp 43816; 2 µg/mL (≈ 1.31 µM) with Kp 10031; 1 µg/mL (≈ 0.654 µM) against Ec 25922; 1 µg/mL (≈ 0.654 µM) with Ec 2469. In the experiment with Sa RN, this compound registered an MIC above 128 µg/mL. Further, the “MIC in RPMI AB 5075” value against Ab AB5075 was 0.95 µg/mL (≈ 0.621 µM). For the same compound, the “MIC in RPMI EC 25922” value against Ec 25922 was 0.95 µg/mL (≈ 0.621 µM). In the experiment on A. baumannii AB5075, the “protection (survival over 5 days), FIG. 118” value was found to be 40%.

With `C#CCOCCOCCOCCOCCN1C[C@@H](C(=O)N[C@@H](CCCC)C(=O)N[C@@H](CCN)C(=O)N[C@H](C(=O)NNC(=O)N[C@H]2CCNC(=O)[C@H]([C@@H](C)O)NC(=O)[C@H](CCN)NC(=O)[C@H](CCN)NC(=O)[C@H](CC(C)C)NC(=O)[C@@H](Cc3ccccc3)NC(=O)[C@H](CCN)NC2=O)[C@@H](C)O)[C@H](C(=O)N[C@@H](CCCC)C(=O)N[C@@H](CCN)C(=O)N[C@H](C(=O)NNC(=O)N[C@H]2CCNC(=O)[C@H]([C@@H](C)O)NC(=O)[C@H](CCN)NC(=O)[C@H](CCN)NC(=O)[C@H](CC(C)C)NC(=O)[C@@H](Cc3ccccc3)NC(=O)[C@H](CCN)NC2=O)[C@@H](C)O)C1` [Int-120] (I: [Nle][Dab]T[azaGly][Dab][Dab][dF]L[Dab][Dab]T / II: [Nle][Dab]T[azaGly][Dab][Dab][dF]L[Dab][Dab]T; lactam I:5-I:C, II:5-II:C; linker I:N-II:N via X5), the minimal inhibitory concentration (MIC) in the experiment on Ab AB5075 (Ab AB5075, media CA-MHB) was 2 µg/mL (≈ 0.767 µM); in the experiment with Ab 8990 (COL^R) (Ab 8990 (COL^R), media CA-MHB), above 128 µg/mL; in the experiment on Kp 43816 (Kp 43816, media CA-MHB) it was 2 µg/mL (≈ 0.767 µM); with Kp 6951 (COL^R) it was 8 µg/mL (≈ 3.07 µM); in the experiment on Kp 10031 (Kp 10031, media CA-MHB), 2 µg/mL (≈ 0.767 µM); in the experiment with Ab 19606 (COLhet^R), 2 µg/mL (≈ 0.767 µM). Besides, the minimal inhibitory concentration (MIC) was 0.25 µg/mL in the experiment with Ec 25922 (Ec 25922 + FBS (50%, heat-inactivated), media CA-MHB); 2 µg/mL (≈ 0.767 µM) with Ec 25922 (Ec 25922, media CA-MHB); 2 µg/mL (≈ 0.767 µM) against Ec 2469 (Ec 2469, media CA-MHB); above 128 µg/mL against Sa RN; 4 µg/mL (≈ 1.53 µM) in experiment [1].

In the case of `C#CCOCCOCCOCCOCCC(=O)N[C@@H](CCC(C)C)C(=O)N[C@@H](CCN)C(=O)N[C@H](C(=O)NNC(=O)N[C@H]1CCNC(=O)[C@H]([C@@H](C)O)NC(=O)[C@H](CCN)NC(=O)[C@H](CCN)NC(=O)[C@H](CC(C)C)NC(=O)[C@@H](Cc2ccccc2)NC(=O)[C@H](CCN)NC1=O)[C@H](O)CCCCC` [Int-116] ({Propargyl(OCH2CH2)4CO}-[hLeu][Dab][X3][azaGly][Dab][Dab][dF]L[Dab][Dab]T; lactam 5-C), the minimal inhibitory concentration (MIC) was 1 µg/mL (≈ 0.691 µM) in the experiment on Ab AB5075; above 128 µg/mL against Ab 8990 (COL^R) (Ab 8990 (COL^R), media CA-MHB); 2 µg/mL (≈ 1.38 µM) in the experiment on Kp 43816; above 128 µg/mL with Kp 6951 (COL^R); 2 µg/mL (≈ 1.38 µM) with Kp 10031; 1 µg/mL (≈ 0.691 µM) in the experiment on Ab 19606 (COLhet^R). Besides, the MIC was 2 µg/mL (≈ 1.38 µM) with Ec 25922, 2 µg/mL (≈ 1.38 µM) against Ec 2469, above 128 µg/mL against Sa RN and 64 µg/mL (≈ 44.2 µM) in experiment [1]. Moreover, in the experiment on Ab AB5075, the “MIC in RPMI AB 5075” value was 1.05 µg/mL (≈ 0.726 µM). In addition, the “MIC in RPMI EC 25922” value against Ec 25922 is 1.05 µg/mL (≈ 0.726 µM). The “protection (survival over 5 days), FIG. 118” value in the experiment on A. baumannii AB5075 is 100%.

Consider `C#CCOCCOCCOCCOCCC(=O)N[C@@H](CCC(C)C)C(=O)N[C@@H](CCN)C(=O)N[C@H](C(=O)NN(CCN)C(=O)N[C@H]1CCNC(=O)[C@H]([C@@H](C)O)NC(=O)[C@H](CCN)NC(=O)[C@H](CCN)NC(=O)[C@H](CC(C)C)NC(=O)[C@@H](Cc2ccccc2)NC(=O)[C@H](CCN)NC1=O)[C@@H](C)O` [Int-127] ({Propargyl(OCH2CH2)4CO}-[hLeu][Dab]T[azaDab][Dab][Dab][dF]L[Dab][Dab]T; lactam 5-C), for which the MIC against Ab AB5075 is 2 µg/mL (≈ 1.39 µM); in the experiment on Ab 8990 (COL^R) (Ab 8990 (COL^R), media CA-MHB), above 128 µg/mL; in the experiment on Kp 43816 it was 1 µg/mL (≈ 0.697 µM); in the experiment on Kp 6951 (COL^R), above 128 µg/mL; against Kp 10031, 1 µg/mL (≈ 0.697 µM); against Ab 19606 (COLhet^R) it was 2 µg/mL (≈ 1.39 µM). The minimal inhibitory concentration (MIC) with Ec 25922 was 1 µg/mL (≈ 0.697 µM); in the experiment with Ec 2469, 1 µg/mL (≈ 0.697 µM); with Sa RN it was above 128 µg/mL; in [1], 64 µg/mL (≈ 44.6 µM). Besides, the “MIC in RPMI AB 5075” value in the experiment with Ab AB5075 amounted to 1.00 µg/mL (≈ 0.697 µM). The “MIC in RPMI EC 25922” value against Ec 25922 stood at 1.00 µg/mL (≈ 0.697 µM).

For `C#CCOCCOCCOCCOCCC(=O)N[C@@H](CCCCCC)C(=O)N[C@@H](CCN)C(=O)N[C@H](C(=O)NN(CCN)C(=O)N[C@H]1CCNC(=O)[C@H]([C@@H](C)O)NC(=O)[C@H](CCN)NC(=O)[C@H](CCN)NC(=O)[C@H](CC(C)C)NC(=O)[C@@H](Cc2ccccc2)NC(=O)[C@H](CCN)NC1=O)[C@@H](C)O` [Int-129] ({Propargyl(OCH2CH2)4CO}-[Aoc(2)][Dab]T[azaDab][Dab][Dab][dF]L[Dab][Dab]T; lactam 5-C), the minimal inhibitory concentration (MIC) is 2 µg/mL (≈ 1.38 µM) against Ab AB5075; 128 µg/mL (≈ 88.4 µM) in the experiment on Ab 8990 (COL^R); 2 µg/mL (≈ 1.38 µM) against Kp 43816; 2 µg/mL (≈ 1.38 µM) with Kp 10031; 1 µg/mL (≈ 0.691 µM) in the experiment with Ec 25922; 2 µg/mL (≈ 1.38 µM) against Ec 2469. Besides, the MIC with Sa RN is above 128 µg/mL. In the experiment with A. baumannii AB5075, the “protection (survival over 5 days), FIG. 119” value turned out to be 60%.

The values are drawn from US20230165970A1, “COMPOSITIONS AND METHODS FOR THE TREATMENT OF BACTERIAL INFECTIONS” (priority 2017, published 2023).
